Reference: EP4650353A1 (Shanghai Institute of Materia Medica, Chinese Academy of …, priority 2023, dated 2024)

Columns and labels:
hGLP-1R transgenic mice = assay: Hypoglycemic effect of compound 76-1 (oral glucose tolerance test); assay type: in vivo
Procedure: Mouse model: hGLP-1R transgenic mice, 6 female mice per experimental group.
Experimental procedure: The mice were starved overnight, and the blood sugar in the tail of the mice was measured. 30 minutes after oral administration, the blood sugar was measured again as the blood sugar at zero point. Then, 2g/kg of sugar was given orally. 15min, 30min, 60min, and 90min after sugar administration, the blood sugar was measured using a blood glucose meter.

[1] = test system: hGLP-1 receptor knock-in mice; assay: Long-term administration in high-fat diet fed hGLP-1R mice for weight loss; assay type: in vivo; conditions: ammonium salt
Procedure: (§1) Genetically engineered hGLP-1R gene knock-in mice, male, 8-10 weeks old, specific pathogen free (SPF) grade, were purchased from Biocytogen Jiangsu Gene Biotechnology Co., Ltd. All experimental animals were housed in the SPF-level environment of the National Compound Sample Library animal room, with a temperature of 24±2°C, a relative humidity of 40-60%RH, an air cleanliness level of 7, and a day and night light-dark cycle of 12h/12h; they were continuously supplied with cobalt-60 radiation-sterilized complete mouse granular feed (Shanghai Shilin Biotechnology Co., Ltd., maintenance feed for rats and mice), and were allowed to drink tap water (sterilized with high-pressure steam) without interruption, and were allowed to drink it freely. The cages were transparent polyetherimide cages (Suzhou Fengshi Experimental Animal Equipment Co., Ltd., CP-8 mouse cages), and the bedding was corn cobs (Tezhou Gumei Agricultural Technology Co., Ltd., used after high-pressure steam sterilization). There were 3-5 animals in each cage, and the cage card indicated the IACUC approval number, experiment number, experiment start time, person in charge, experimenter, animal source, group and animal number. The purchased mice were adapted to this breeding environment for at least 7 days before being used in experiments. The animal use methods in this study were approved by the IACUC Committee of the Shanghai Institute of Materia Medica.
The mice were weighed every day, and 24 hours after the last administration, the body fat and muscle content of the mice were detected using a Bruker desktop nuclear magnetic resonance spectrometer (model LF90II). • (4) Experimental results

[2] = test system: hGLP-1 receptor knock-in mice; assay: Mouse food intake suppression experiment (compound 76-1); assay type: in vivo; conditions: 10 or 30 mg/kg oral
Procedure: as §1, with “The animal use methods in this study were approved by the IACUC Committee of the Shanghai Institute of Materia Medica.” left out

human GLP-1 receptor = target: T1, human GLP-1 receptor (Homo sapiens, UniProt P43220); assay: GLP-1 receptor-mediated agonist activity: cAMP level in hGLP-1R/HEK293 cell line (HTRF); assay type: cell-based; conditions: cAMP levels in hGLP-1R/HEK293 cell line; Table 1; read-out: determined EC50
T1 construct: HA (N); expressed in transfected cells
T1 sequence (P43220 24-463): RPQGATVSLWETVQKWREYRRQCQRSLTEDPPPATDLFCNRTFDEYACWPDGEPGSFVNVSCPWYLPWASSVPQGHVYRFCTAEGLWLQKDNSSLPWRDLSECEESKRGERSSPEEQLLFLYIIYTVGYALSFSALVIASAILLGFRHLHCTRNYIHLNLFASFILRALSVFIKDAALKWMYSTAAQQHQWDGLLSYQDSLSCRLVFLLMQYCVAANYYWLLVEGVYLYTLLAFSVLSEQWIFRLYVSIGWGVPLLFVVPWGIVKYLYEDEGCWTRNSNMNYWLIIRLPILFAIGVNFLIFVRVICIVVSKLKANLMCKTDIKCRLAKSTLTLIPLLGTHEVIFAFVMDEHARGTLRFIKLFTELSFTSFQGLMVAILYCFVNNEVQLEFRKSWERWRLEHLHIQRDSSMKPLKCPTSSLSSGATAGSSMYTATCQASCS

β-arrestin 1 = assay: NanoBiT recruitment of β-arrestin 1 by GLP-1R in HEK293 cells; assay type: cell-based, human; conditions: endogenous GLP-1 = 100%; Figure 1, n=3
Excerpt: (§2) The Promega NanoBiT protein-protein reaction system was used to detect the recruitment of β-arrestin 1 and β-arrestin 2 by GLP-1R. The NanoBit Protein-Protein Reaction System was a dual-subunit system based on NanoLuc luciferase that could be used to detect protein-protein interactions in cells. The LgBiT (17.6 kDa) and SmBiT (11 amino acids) subunits were fused to the proteins of interest, respectively. When the proteins of interest interact, the two subunits came into close proximity to form an enzyme with catalytic activity, which could catalyze the luminescence of the luciferase substrate. Firstly, the human GLP-1R gene was connected to the N-terminus of LgBit, the β-arrestin 1/2 gene was cloned to the C-terminus of SmBit, and the fusion protein was introduced into the pcDNA3.0 vector to construct plasmids expressing hGLP-1R-LgBit and SmBit-β-arrestin 1/2 fusion proteins. The hGLP-1R-LgBit plasmid and SmBit-β-arrestin 1 (or SmBit-β-arrestin 2) plasmid were co-transfected into HEK293 cells at a ratio of 1 µg plasmid/2×10^6 cells.

β-arrestin 2 = assay: NanoBiT recruitment of β-arrestin 2 by GLP-1R in HEK293 cells; assay type: cell-based, human; conditions: endogenous GLP-1 = 100%; Figure 2, n=3
Excerpt: as §2

| EC50 (human GLP-1 receptor) [pM] | SMILES | area under the blood glucose curve (AUC) (hGLP-1R transgenic mice; ammonium salt, 0.1, 0.3 mg/kg oral) | blood glucose level (hGLP-1R transgenic mice; ammonium salt, 0.1, 0.3 mg/kg oral, 30 min before 2 g/kg sugar) | effective dose (hGLP-1R transgenic mice; ammonium salt, oral, oral glucose tolerance test) [mg/kg] | weight gain of HFD-fed mice ([1]; 30 mg/kg by gavage once a day, 15 days) | reduce body weight compared with the blank control group ([1]; 30 mg/kg once a day, after 15 days of administration, HFD) [%] | body fat and lean (muscle) content change trend in HFD mice ([1]; 30 mg/kg, after 15 days of administration) | effect on food intake compared with positive control PF-06882961 ammonium salt at the same dose [2] | food intake ([2]; ammonium salt, within 0 to 12 hours, fasted 6 h) | maximum agonistic effect (Emax) recruiting β-arrestin 1 (β-arrestin 1) [%] | maximum agonistic effect (Emax) recruiting β-arrestin 2 (β-arrestin 2) [%] |
| --- | --- | --- | --- | --- | --- | --- | --- | --- | --- | --- | --- |
| 1.6 | [2H]C([2H])([2H])C([2H])([2H])Oc1cc(C(=O)O)cc2c1nc(CN1CCN(c3cccc4c3O[C@@](C)(c3ccc(Cl)cc3F)O4)C=N1)n2C[C@@H]1CCO1 [Compound 76-1, 2-((4-((S)-2-(4-chloro-2-fluorophenyl)-2-methylbenzo[d][1,3]dioxol-4-yl)-5,6-dihydro-1,2,4-triazin-1(4H)-yl)methyl)-4-(ethoxy-d5)-1-(((S)-oxetan-2-yl)methyl)-1H-benzo[d]imidazole-6-carboxylic acid] | dose-dependently reduce | dose-dependently reduce | ≤ 0.1 | effectively inhibit the weight gain | 20.4 | effectively inhibit this change trend | better than the positive control PF-06882961 ammonium salt | significantly inhibit the food intake | – | – |
| – | CC[C@H](C)[C@H](NC(=O)[C@H](Cc1ccccc1)NC(=O)[C@H](CCC(=O)O)NC(=O)[C@H](CCCCN)NC(=O)[C@H](C)NC(=O)[C@H](C)NC(=O)[C@H](CCC(N)=O)NC(=O)CNC(=O)[C@H](CCC(=O)O)NC(=O)[C@H](CC(C)C)NC(=O)[C@H](Cc1ccc(O)cc1)NC(=O)[C@H](CO)NC(=O)[C@H](CO)NC(=O)[C@@H](NC(=O)[C@H](CC(=O)O)NC(=O)[C@H](CO)NC(=O)[C@@H](NC(=O)[C@H](Cc1ccccc1)NC(=O)[C@@H](NC(=O)CNC(=O)[C@H](CCC(=O)O)NC(=O)[C@H](C)NC(=O)[C@@H](N)Cc1c[nH]cn1)[C@@H](C)O)[C@@H](C)O)C(C)C)C(=O)N[C@@H](C)C(=O)N[C@@H](Cc1c[nH]c2ccccc12)C(=O)N[C@@H](CC(C)C)C(=O)N[C@H](C(=O)N[C@@H](CCCCN)C(=O)NCC(=O)N[C@@H](CCCNC(=N)N)C(N)=O)C(C)C [GLP-1] | – | – | – | – | – | – | – | – | 100 | 100 |
